In patent US20260042731A1, “(2,4-DICHLOROPHENOXY)ACETIC ACID ANALOGS” (CORTEVA AGRISCIENCE LLC, priority 2022, published 2026):
Where two headings read alike, the source gives them in different places.

Assays:
[1] = system: Amaranthus rudis (AMATA), tall water hemp; assay: Postemergence herbicide evaluation, growth of Amaranthus rudis (AMATA); assay type: in vivo; conditions: Amaranthus tuberculatus, post-emergence, read-out: Ave. AMATA, percent reduction in plant size relative to the untreated control; for pest or weed control at 280 g/ha: 280 g ae/ha; for pest or weed control at 560 g/ha: 560 g ae/ha
[2] = system: Ambrosia artemisiifolia (AMBEL), common ragweed; assay: Postemergence herbicide evaluation, growth of Ambrosia artemisiifolia (AMBEL); assay type: in vivo; conditions: Ambrosia artemisiifolia, post-emergence, read-out: AVE. AMBEL, percent reduction in plant size relative to the untreated control; for pest or weed control at 280 g/ha: 280 g ae/ha; for pest or weed control at 560 g/ha: 560 g ae/ha
[3] = system: Abutilon theophrasti (ABUTH), velvetleaf; assay: Postemergence herbicide evaluation, growth of Abutilon theophrasti (ABUTH); assay type: in vivo; conditions: Abutilon theophrasti, post-emergence, read-out: AVE. ABUTH, percent reduction in plant size relative to the untreated control; for pest or weed control at 280 g/ha: 280 g ae/ha; for pest or weed control at 560 g/ha: 560 g ae/ha
[4] = system: Chenopodium album (CHEAL), common lambsquarters; assay: Postemergence herbicide evaluation, growth of Chenopodium album (CHEAL); assay type: in vivo; conditions: Chenopodium album, post-emergence, read-out: Ave. CHEAL, percent reduction in plant size relative to the untreated control; for pest or weed control at 280 g/ha: 280 g ae/ha; for pest or weed control at 560 g/ha: 560 g ae/ha
[5] = system: glyphosate resistant Conyza canadensis (L.) (ERICA), horseweed; assay: Postemergence herbicide evaluation, growth of Conyza canadensis (ERICA); assay type: in vivo; conditions: Erigeron canadensis, post-emergence, read-out: Ave. ERICA, percent reduction in plant size relative to the untreated control; for pest or weed control at 280 g/ha: 280 g ae/ha; for pest or weed control at 560 g/ha: 560 g ae/ha
[6] = Volatility of compounds measured by thermogravimetric analysis (TGA); assay type: physicochemical
[7] = system: weeds ABUTH, AMATA, AMBEL, CHEAL, ERICA; assay: Postemergence herbicide evaluation, overall average % weed control (ABUTH, AMATA, AMBEL, CHEAL, ERICA); assay type: in vivo; conditions: post-emergence, read-out: Overall Ave % Weed Control; for pest or weed control at 280 g/ha: 280 g ae/ha; for pest or weed control at 560 g/ha: 560 g ae/ha

SMILES	pest or weed control at 280 g/ha ([1]; 168 h, 7 DAA) [%]	pest or weed control at 560 g/ha ([1]; 168 h, 7 DAA) [%]	pest or weed control at 280 g/ha ([1]; 336 h, 14 DAA) [%]	pest or weed control at 560 g/ha ([1]; 336 h, 14 DAA) [%]	pest or weed control at 280 g/ha ([1]; 504 h, 21 DAA) [%]	pest or weed control at 560 g/ha ([1]; 504 h, 21 DAA) [%]	pest or weed control at 280 g/ha ([2]; 168 h, 7 DAA) [%]	pest or weed control at 560 g/ha ([2]; 168 h, 7 DAA) [%]	pest or weed control at 280 g/ha ([2]; 336 h, 14 DAA) [%]	pest or weed control at 560 g/ha ([2]; 336 h, 14 DAA) [%]	pest or weed control at 280 g/ha ([2]; 504 h, 21 DAA) [%]	pest or weed control at 560 g/ha ([2]; 504 h, 21 DAA) [%]	pest or weed control at 280 g/ha ([3]; 168 h, 7 DAA) [%]	pest or weed control at 560 g/ha ([3]; 168 h, 7 DAA) [%]	pest or weed control at 280 g/ha ([3]; 336 h, 14 DAA) [%]	pest or weed control at 560 g/ha ([3]; 336 h, 14 DAA) [%]	pest or weed control at 280 g/ha ([3]; 504 h, 21 DAA) [%]	pest or weed control at 560 g/ha ([3]; 504 h, 21 DAA) [%]	pest or weed control at 280 g/ha ([4]; 168 h, 7 DAA) [%]	pest or weed control at 560 g/ha ([4]; 168 h, 7 DAA) [%]	further results
C/C(=N\OC(=O)COc1ccc(Cl)cc1Cl)c1ccccc1Cl [Compound A24]	82.5	72.5	92.5	90	77.5	72.5	70	75	75	75	97.5	100	62.5	57.5	77.5	67.5	80	85	75	77.5	pest or weed control at 280 g/ha ([4]; 336 h, 14 DAA): 91.5%; pest or weed control at 560 g/ha ([4]; 336 h, 14 DAA): 95%; pest or weed control at 280 g/ha ([4]; 504 h, 21 DAA): 98.5%; pest or weed control at 560 g/ha ([4]; 504 h, 21 DAA): 94.5%; pest or weed control at 280 g/ha ([5]; 168 h, 7 DAA): 80%; pest or weed control at 560 g/ha ([5]; 168 h, 7 DAA): 75%; pest or weed control at 280 g/ha ([5]; 336 h, 14 DAA): 98.5%; pest or weed control at 560 g/ha ([5]; 336 h, 14 DAA): 91.5%; pest or weed control at 280 g/ha ([5]; 504 h, 21 DAA): 94.5%; pest or weed control at 560 g/ha ([5]; 504 h, 21 DAA): 97%; TGA Data (rate of weight loss, volatility) [6]: 0.03549 µg/min; pest or weed control at 280 g/ha ([7]; 168 h, 7 DAA): 74%; pest or weed control at 560 g/ha ([7]; 168 h, 7 DAA): 71.5%; pest or weed control at 280 g/ha ([7]; 336 h, 14 DAA): 87%; pest or weed control at 560 g/ha ([7]; 336 h, 14 DAA): 83.8%; pest or weed control at 280 g/ha ([7]; 504 h, 21 DAA): 89.6%; pest or weed control at 560 g/ha ([7]; 504 h, 21 DAA): 89.8%
C/C(=N\OC(=O)COc1ccc(Cl)cc1Cl)c1ccncc1 [Compound A27]	75	85	90	96	62.5	77.5	80	90	75	82.5	100	100	60	82.5	75	98.5	92.5	100	77.5	85	pest or weed control at 280 g/ha ([4]; 336 h, 14 DAA): 98%; pest or weed control at 560 g/ha ([4]; 336 h, 14 DAA): 94.5%; pest or weed control at 280 g/ha ([4]; 504 h, 21 DAA): 98.5%; pest or weed control at 560 g/ha ([4]; 504 h, 21 DAA): 100%; pest or weed control at 280 g/ha ([5]; 168 h, 7 DAA): 85%; pest or weed control at 560 g/ha ([5]; 168 h, 7 DAA): 82.5%; pest or weed control at 280 g/ha ([5]; 336 h, 14 DAA): 100%; pest or weed control at 560 g/ha ([5]; 336 h, 14 DAA): 100%; pest or weed control at 280 g/ha ([5]; 504 h, 21 DAA): 98.5%; pest or weed control at 560 g/ha ([5]; 504 h, 21 DAA): 97.5%; TGA Data (rate of weight loss, volatility) ([6]; value marked *: decomposition of the material was observed): 1.27* μg/min; pest or weed control at 280 g/ha ([7]; 168 h, 7 DAA): 75.5%; pest or weed control at 560 g/ha ([7]; 168 h, 7 DAA): 85%; pest or weed control at 280 g/ha ([7]; 336 h, 14 DAA): 87.6%; pest or weed control at 560 g/ha ([7]; 336 h, 14 DAA): 94.3%; pest or weed control at 280 g/ha ([7]; 504 h, 21 DAA): 90.4%; pest or weed control at 560 g/ha ([7]; 504 h, 21 DAA): 95%
